Experimental data taken from PubChem BioAssay AID216 (DTP/NCI, 2004).
“And” between values parts separate entries of the source, which are not always exact repeats. Equal entries are not always repeated. Inconclusive results and toxic doses are left out. Rule for the calls: active = survival T/C of 150% or more; inactive = T/C below 125% in these data.

Tested on: BDF1 mice, P288 leukemia ip, survival T/C
Experiment: NCI In Vivo Anticancer Drug Screen. Data for tumor model P288 Lymphocytic Leukemia (intraperitoneal) in B6D2F1 (BDF1) mice
Conditions: endpoint: survival time, mean or median, higher = longer survival
Method: The antitumor activity of compounds was measured in mice bearing transplantable tumors. Survival or tumor size were measured and the results are expressed as the measurement made in the treated group (T) divided by the measurement made in the vehicle treated control group (C). The tumor model used in this assay is P288 Lymphocytic Leukemia (intraperitoneal) in B6D2F1 (BDF1) mice

Measured: T/C

C[C@]12C=CC(=O)C=C1CC[C@@H]1[C@@H]2C(=O)C[C@@]2(C)[C@H]1CC[C@]2(O)C(=O)CO
inactive: dose: 12.5 mg/kg/injection, schedule: Q01DX010 (sc), vehicle: steriod suspending solution 105 % of control | dose: 25.0 mg/kg/injection, schedule: Q01DX010 (sc), vehicle: steriod suspending solution 103 % of control | dose: 50.0 mg/kg/injection, schedule: Q01DX010 (sc), vehicle: steriod suspending solution 111 % of control and 87 % of control | dose: 50.0 mg/kg/injection, schedule: Q01DX Z (sc), vehicle: steriod suspending solution 102 % of control and 100 % of control | dose: 100.0 mg/kg/injection, schedule: Q01DX010 (sc), vehicle: steriod suspending solution 100 % of control | dose: 100.0 mg/kg/injection, schedule: Q01DX Z (sc), vehicle: steriod suspending solution 102 % of control and 111 % of control | dose: 200.0 mg/kg/injection, schedule: Q01DX010 (sc), vehicle: steriod suspending solution 97 % of control | dose: 200.0 mg/kg/injection, schedule: Q01DX Z (sc), vehicle: steriod suspending solution 90 % of control and 100 % of control | dose: 400.0 mg/kg/injection, schedule: Q01DX Z (sc), vehicle: steriod suspending solution 94 % of control

COc1cc2c(c(OC)c1OC)-c1ccc(OC)c(=O)cc1[C@@H](NC(C)=O)CC2
inactive: dose: 0.12 mg/kg/injection, schedule: Q01DX Z (ip), vehicle: saline 109 % of control

CC(=O)Nc1ccc(/C=N/Nc2ccc([N+](=O)[O-])cn2)cc1
inactive: dose: 31.3 mg/kg/injection, schedule: Q01DX010 (ip), vehicle: saline 89 % of control | dose: 62.5 mg/kg/injection, schedule: Q01DX010 (ip), vehicle: saline 89 % of control | dose: 250.0 mg/kg/injection, schedule: Q01DX010 (ip), vehicle: saline 89 % of control

Cn1c(N)nc2nc[nH]c2c1=S
inactive: dose: 3.1 mg/kg/injection, schedule: Q01DX Z (ip), vehicle: carboxymethylcellulose (CMC) 90 % of control | dose: 10.0 mg/kg/injection, schedule: Q01DX010 (ip), vehicle: saline 100 % of control | dose: 20.0 mg/kg/injection, schedule: Q01DX010 (ip), vehicle: saline 100 % of control | dose: 40.0 mg/kg/injection, schedule: Q01DX010 (ip), vehicle: saline 100 % of control | dose: 80.0 mg/kg/injection, schedule: Q01DX010 (ip), vehicle: saline 106 % of control
